Experimental data taken from patent US20240109912A1, “TRICYCLIC PYRIMIDINES AS CYCLIN-DEPENDENT KINASE 7 (CDK7) INHIBITORS” (JANSSEN PHARMACEUTICA NV, priority 2020, published 2024).

Columns and labels:
[1] = test system: RNA polymerase II Serine 5 phosphorylation in A549 cells overexpressing CDK7 mutant (C312S); assay: Imaging-based cellular RNA PolII Ser5 phosphorylation assay in A549 cells overexpressing CDK7-mutant (C312S); format: cell-based, human; conditions: for IC50: Homo sapiens, A549, A549 cells overexpressing CDK7 mutant (C312S), read-out: CDK7_ A549 mutant hCDK7(pIC50) (converted); for CDK7_ A549 mutant hCDK7(pIC50): A549 cells overexpressing CDK7 mutant (C312S)
Description: Data were calculated and analyzed in Phaedra.
From this an IC50 value can be obtained.
In parallel this assay was performed in A549 cells overexpressing CDK7-mutant (C312S) to evaluate the effect of the covalent bond on potency and to screen for potential off-target effects. Mutation of Cysteine to Serine (C312S), a less nucleophilic amino acid, prevents CDK7 inhibitors from covalently binding to CDK7 and from inhibiting CDK7 activity in an irreversible manner. A stably transduced A549 cell pool was generated that overexpresses CDK7 mutant (C312S), but also expresses endogenous CDK7-WT. Covalent binders targeting the cysteine at position 312 will show a shift in potency in A549 cells overexpressing mutant C312S CDK7.

[2] = test system: RNA polymerase II Serine 5 phosphorylation (CDK7) in A549 cells

| SMILES | IC50 [1] | IC50 [2] | CDK7_ A549 mutant hCDK7(pIC50) [1] |
| --- | --- | --- | --- |
| CC#CC(=O)N1CC(OC2CCN(c3cc(C)c4c(c3)Nc3ncnc(N5CCS(=O)(=O)CC5)c3[C@@H](C)O4)CC2)C1 [compound 143] | > 10000 nM | 912 nM |  |
| CC#CC(=O)N1CCC(N2CCC(c3cc(C)c4c(c3)Nc3ncnc(N5CCS(=O)(=O)CC5)c3CO4)CC2)C1 (stereo not drawn) [compound 152] | ~8320 nM | 64.6 nM |  |
| CC#CC(=O)N1CCC(N2CCC(c3cc(C)c4c(c3)Nc3ncnc(N5CCS(=O)(=O)CC5)c3[C@@H](C)O4)CC2)CC1 [compound 156] | 1950 nM | < 2.45 nM |  |
| CC#CC(=O)N1CC(N2CCC(c3cc(C)c4c(c3)Nc3ncnc(N5CCS(=O)(=O)CC5)c3[C@@H](C)O4)CC2)C1 [compound 157] |  | 75.9 nM | 5.12 |
| CC#CC(=O)N1CC(N2CCC(c3cc(C)c4c(c3)Nc3ncnc(N5CCS(=O)(=O)CC5)c3[C@@H](C)O4)CC2)C1 [compound 158] |  | 74.1 nM | ~5.22 |
| CC#CC(=O)N1CCN([C@H]2CC[C@H](c3cc(C)c4c(c3)Nc3ncnc(N5CCS(=O)(=O)CC5)c3[C@@H](C)O4)CC2)CC1 [compound 161] | > 10000 nM | < 9.77 nM |  |
| CC#CC(=O)N1CCN([C@H]2CC[C@@H](c3cc(C)c4c(c3)Nc3ncnc(N5CCS(=O)(=O)CC5)c3[C@@H](C)O4)CC2)CC1 [compound 162] | > 10000 nM | 209 nM |  |
| CCC#CC(=O)N1CC(N2CCC(c3cc(C)c4c(c3)Nc3ncnc(N5CCS(=O)(=O)CC5)c3[C@@H](C)O4)CC2)C1 [compound 163] | > 10000 nM | ~31.6 nM |  |
| [2H]C([2H])([2H])C#CC(=O)N1CC(N2CCC(c3cc(C)c4c(c3)Nc3ncnc(N5CCS(=O)(=O)CC5)c3[C@@H](C)O4)CC2)C1 [compound 164] | > 10000 nM | 53.7 nM |  |
| Cc1cc(C2CCN(C3CN(C(=O)C#CCN(C)C)C3)CC2)cc2c1O[C@H](C)c1c(ncnc1N1CCS(=O)(=O)CC1)N2 [compound 169] | 4170 nM | < 2.45 nM |  |
| CC#CC(=O)N1CCC([C@H]2CC[C@H](c3cc(C)c4c(c3)Nc3ncnc(N5CCS(=O)(=O)CC5)c3[C@@H](C)O4)CC2)CC1 [compound 172] | > 10000 nM | 355 nM |  |
| CC#CC(=O)N1CCC([C@H]2CC[C@@H](c3cc(C)c4c(c3)Nc3ncnc(N5CCS(=O)(=O)CC5)c3[C@@H](C)O4)CC2)CC1 [compound 173] | > 10000 nM | > 10000 nM |  |
| Cc1cc(C2CCN(C3CN(C(=O)C#CC(C)C)C3)CC2)cc2c1O[C@H](C)c1c(ncnc1N1CCS(=O)(=O)CC1)N2 [compound 174] | 7760 nM | 58.9 nM |  |
| Cc1cc(C2CCN(C3CN(C(=O)C#CCCN4CCOCC4)C3)CC2)cc2c1O[C@H](C)c1c(ncnc1N1CCS(=O)(=O)CC1)N2 [compound 175] | ~10000 nM | ~26.3 nM |  |
| Cc1cc(C2CCN(C3CN(C(=O)C#CCCN(C)C)C3)CC2)cc2c1O[C@H](C)c1c(ncnc1N1CCS(=O)(=O)CC1)N2 [compound 178] | 5750 nM | < 9.77 nM |  |
| [2H]C([2H])([2H])C#CC(=O)N1CC(C)(N2CCC(c3cc(C)c4c(c3)Nc3ncnc(N5CCS(=O)(=O)CC5)c3[C@@H](C)O4)CC2)C1 [compound 179] | > 10000 nM | ~56.2 nM |  |
| Cc1cc(C2CCN(C3(C)CN(C(=O)C#CCCN4CCOCC4)C3)CC2)cc2c1O[C@H](C)c1c(ncnc1N1CCS(=O)(=O)CC1)N2 [compound 180] | > 10000 nM | < 9.77 nM |  |
| Cc1cc(C2CCN(C3(C)CN(C(=O)C#CCN(C)C)C3)CC2)cc2c1O[C@H](C)c1c(ncnc1N1CCS(=O)(=O)CC1)N2 [compound 181] | 2340 nM | 41.7 nM |  |
